Data reported in patent US7279548B2, “Identification and isolation of novel polypeptides having WW domains and methods of using same” (Cytogen Corporation, priority 1996, dated 2007).
No end group written: not given here. *: point of attachment. Biotin = O=C1N[C@H]2[C@H](CS[C@H]2CCCCC(=O)*)N1

Key:
Format in all cases: binding, human
[1] = tested on: WW domains of WWP1 expressed as GST fusion proteins; assay: ELISA based cross affinity mapping, WW domains of WWP1; details: biotinylated peptide-streptavidin/alkaline phosphatase complex; GST fusion proteins; ELISA
Procedure: (§1) The 16 day mouse embryo cDNA expression library was diluted 1:1000 in SM solution (100 mM NaCl, 8 mM MgSOv4, 50 mM Tris HCl pH 7.5, 0.01% gelatin). To a sterile test tube, 2 μl of diluted mouse embryo library, 100 μl of 10 mM CaCl2, 100 μl of 10 mM MgCl2 and 100 μl of BL21(DE3)pLysE bacterial cells (grown overnight) were added and incubated for 30 minutes at 37° C. The contents of the tube were mixed with 3 ml of 0.6% top agarose, containing […] chloramphenicol, and poured onto a 2xYT plate (90 mm diameter). For a large primary screen, 10–20 plates were prepared with 3×10^4 pfu per plate. After 6 hours incubation at 37° C., a nitrocellulose filter soaked in 10 mM isopropyl-β-D-thiogalactopyranoside (IPTG) was overlaid on each plate and incubated 3–6 hours at 37° C. Before the filters were removed from the plates, they were marked asymmetrically with India ink in a 18 gauge syringe needle. The plates were stored at 4° C. until ready for the secondary screen. The filters were washed with PBS (137 mM NaCl, 2.7 mM KCl, 4.3 mM Na2HPO4, 1.4 mM KH2PO4)-0.05% Triton X-100 three times at room temperature, 15 minutes each wash, and then placed in a plastic bag containing non-specific blocking solution (PBS-2% BSA) for one hour. In the meantime, 1 ml of 1 mM biotinylated peptide in PBS-0.1% Tween 20 was added to 20 ml of 1 mg/ml streptavidin-alkaline phosphatase (SA-AP) in PBS-0.1% Tween 20 and incubated at 4° C. for 30 minutes. […] Excess biotin-binding sites would then be blocked by addition of 500 pmol biotin. […] Ten μl of 0.1 mM biotin would then be added, and the solution incubated for an additional 15 min.
(§2) To determine the ligand preferences of the novel WW omain-containing clones described in Sections 6.1 and 6.1.1, as well as addressing the issue of whether peptides containing PPPPY (SEQ ID NO:3)-like motifs derived from a variety of proteins could also serve as recognition units and bind to these clones, a cross affinity mapping experiment was performed (FIGS. 15A–D). The peptides shown in FIGS. 15A–D were synthesized, biotinylated, complexed with streptavidin-alkaline phosphatase, and tested in an ELISA based assay for their ability to bind to the twelve individual novel WW domains of WWP1, WWP2, WWP3 and WWP4 which were expressed as GST fusion proteins. The ELISA based cross-affinity experiments were performed essentially as described by Sparks et al. (1996, Proc. Natl. Acad. Sci. 93:1540–1544) with the following modifications. Briefly, microtiter wells were coated with 1–5 μg of fusion protein in 100 mM NaHCO3, blocked with SuperBlock TBS (Pierce) and washed four times with PBS, 0.05% Tween 20. Specific peptide-streptavidin/alkaline phosphatase complexes were added as above and unbound complexes washed five times with PBS, 0.05% Tween 20. Following addition of PNP substrate (p-nitrophenyl phosphate, Kirkegard & Perry Labs), peptide binding was quantitated after 30 min. at O.D. 405 nm. Relative binding measurements from three independent determinations were assigned to a scale as follows: O.D. units 0–0.5=(−), 0.5–1.0=(+), 1.0–2.0=(++), 2.0–3.0=(+++), >3.0=(++++). Peptide binding to human Fyn and Lyn SH3 and SH2 domains was assessed by a filter binding assay (see Section 6.1 and Sparks et al., 1996, Proc. Natl. Acad. Sci 93:1540–1544). Peptide sequences used in cross-affinity experiments correspond to segments of the following genes: RasGap (Database accession # P20936), AP-2 (P05549), p53BP-2 (U09582), IL-6Rα (P22272), voltage-gated chloride channel CLCN5 (X91906), IL-2Rγ (D111086), RSV (D10652), HTLV-1 (D13784), β-dystroglycan (L19711), Formin (X53599), amiloride-sensitive epithelial Na^+ channel ENaCα (P37089), ENaCβ (X87159) and ENaCγ (X87160), muscarinic acetylcholine receptor M4 AChR (P08173), and c-Abl (P00522). Src and Crk SH3 binding peptide sequences were derived from a phage display random peptide library screen (Section 6.1 and Sparks et al., 1996, Proc. Natl. Acad. Sci. 93:1540–1544).

[2] = tested on: WW domains of WWP2 expressed as GST fusion proteins; assay: ELISA based cross affinity mapping, WW domains of WWP2; details: biotinylated peptide-streptavidin/alkaline phosphatase complex; GST fusion proteins; ELISA
Procedure: as §1, §2

[3] = tested on: twelve individual novel WW domains of WWP1, WWP2, WWP3 and WWP4; assay: ELISA based cross affinity mapping, whole panel of novel WW domains; details: biotinylated peptide-streptavidin/alkaline phosphatase complex, GST fusion proteins
Procedure: as §1, §2

Row | Substance | binding to WW domains of WWP1 [1] | binding to WW domains of WWP2 [2] | binding to the novel WW domains (WWP1, WWP2, WWP3, WWP4 panel) [3]
1 | Biotin-SGSGYVQPPPPPYPGPM [WBP-2A] | specifically bind | specifically bind | bound to several individual WW domains to varying degrees
2 | Biotin-SGSGPGTPPPPYTVGPGY [WBP-1] | specifically bind | specifically bind | bound to several individual WW domains to varying degrees
3 | Biotin-SGSGPGTPYPPPPEFY [WBP-2B] | none of the WW domains of these proteins specifically bind | none of the WW domains of these proteins specifically bind | no binding activity
